Test results: patent US20250064808A1, “METHODS FOR THE TREATMENT OF NLRP3 RELATED DISORDERS” (priority 2022, published 2025)

Legend:
BMDM [1] = assay: mitochondrial Ca2+ ([Ca^2+]m, Rhod-2) in BMDM; format: cell-based, mouse; details: LPS-primed BMDM, XeC 5 μM or RuR 10 μM 16 h
Experimental: After washing, BMDM were kept in the incubator for additional 30 minutes before confocal imaging (Nikon CSU-X1 Spinning Disk). Dynamic [Ca^2+]m images were captured at 10 seconds intervals for 4 minutes, with the addition of NLRP3 agonist at 40 seconds.

BMDM [2] = assay: cytosolic Ca2+ (Fluo-4) in BMDM; format: cell-based, mouse; details: XeC 5 μM 16 h, ATP challenge
Experimental: (§2) Bone marrow cells were cultured in high glucose DMEM supplemented with 10% FBS, 20% L929-cell conditioned medium, and 100 U/mL penicillin-streptomycin for 7-10 days at 37° C. with 5% CO2 (Hornung et al., 2008).
(§3) Mitochondrial membrane potential was measured using TMRM according to manufacturer's instructions. Briefly, BMDM were primed or not with LPS for 4 h, and further stimulated with ATP or nigericin for 60 minutes. Cells were incubated with 200 nM TMRM for 30 minutes at 37° C. After washing twice, fluorescence intensity was determined per manufacturer's instructions using a FilterMax F5 multimode plate reader (Molecular Devices). Mitochondrial reactive oxygen species (mtROS) were measured using MitoSOX (Invitrogen) as described (Xian et al., 2021). […] After washing with PBS twice, cells were resuspended in PBS and counted. Equal numbers of cells from different treatment groups were then plated onto 96-well plates for fluorescence reading. To quantify [Ca^2+]m by 5 μM Rhod-2 or intracellular Ca^2+ intensity by 1 μM Fluo-4, BMDM treated as indicated were loaded with the respective dyes according to manufacturer's instructions for 30 minutes. After washing twice, fluorescence intensity was determined using a FilterMax F5 multimode plate reader (Molecular Devices). […] After washing twice, fluorescence intensity was determined per with a FilterMax F5 multimode plate reader (Molecular Devices).

BMDM [3] = assay: cytochrome C release (immunofluorescence) in BMDM; format: cell-based, mouse; details: BMDM treated with etoposide (positive control)
Experimental: as §2
(§4) BMDM were fixed in 4% paraformaldehyde (PFA), permeabilized in 0.2% Triton X-100,and blocked in 1×PBS supplemented with 3% BSA. […] Nuclei were counterstained with DAPI.

ASC = ASC speck formation (immunofluorescence) in BMDM
BMDM [4] = assay: stimulation of naive recipient BMDM by cell-free mtDNA (cytokine and ISG mRNA, qPCR); format: cell-based, mouse
Experimental: RNA was extracted using AllPrep DNA/RNA Mini kit, and cDNA was synthesized using SuperScript™ VILO™ cDNA Synthesis Kit. mRNA expression was determined by QPCR in a CFX96 thermal cycler (Biorad) as described (Xian et al., 2021). Data are presented in arbitrary units and calculated by the 2^(−ΔΔCT) method. Primer sequences were obtained from the NIH qPrimerDepot (http://mouseprimerdepot.nci.nih.gov) and provided by Integrated DNA technologies.
Extracellular DNA of donor macrophages (1500,000 cells per group) was isolated using QIAamp Circulating Nucleic Acid Kit according to manufacturer's instructions and then eluted in 300 μL distilled H2O and quantified using spectrophotometric analysis at 260/280 nm with Nanodrop. DNA amounts purified among the different treatment groups vary. The DNA amount secreted from LPS-primed donor BMDM is low, approximately at 0.1 μg. The amount of DNA released by LPS-primed donor BMDM challenged with ATP is about 1.3 μg, while the amount of DNA released by LPS-primed donor BMDM challenged with nigericin is around 2 μg. The amount of DNA secreted by LPS-primed donor BMDM challenged with MSU or alum is about 0.7 μg. Applicant used 5% of the prepared DNA for qPCR measurement of extracellular mtDNA and the remaining 95% were added to the recipient BMDM for analyzing the paracrine immunostimulatory effects.

VDAC = VDAC cross-linking assay (VDAC oligomerization) in BMDM; format: cell-based, mouse; details: LPS-primed BMDM; for induction of VDAC oligomerization by mtROS generator: DMNQ 20 μM 16 hrs or MitoParaquat 5 μM 1 hr; for VDAC oligomerization induced by NLRP3 activator: compound pretreatment 16 h (VBIT-4 10 μM, CsA 1 μM, RuR 10 μM), ATP 4 mM or nigericin 10 μM 1 h
Experimental: BMDM treated as indicated were washed and collected in PBS, incubated for 40 min at 30° C. with the cross-linking reagent EGS (200 μM). Samples were subjected to SDS-PAGE and IB analyzed with anti-VDAC antibody.

mPTP = assay: calcein-quenching assay for mPTP opening in BMDM; format: cell-based; details: for induction of mPTP opening by mtROS generator: LPS-primed BMDM, DMNQ 20 μM 16 hrs or MitoParaquat 5 μM 1 hr; for mPTP opening (calcein fluorescence): BMDM pretreated 16 h (CsA 1 μM, VBIT-4 10 μM, RuR 10 μM), LPS-primed, ATP or nigericin 1 h
Experimental: as §2
(§5) Mitochondrial membrane potential was measured using TMRM according to manufacturer's instructions. Briefly, BMDM were primed or not with LPS for 4 h, and further stimulated with ATP or nigericin for 60 minutes. Cells were incubated with 200 nM TMRM for 30 minutes at 37° C. After washing twice, fluorescence intensity was determined per manufacturer's instructions using a FilterMax F5 multimode plate reader (Molecular Devices). Mitochondrial reactive oxygen species (mtROS) were measured using MitoSOX (Invitrogen) as described (Xian et al., 2021). BMDM treated as indicated were loaded with 4 μM MitoSOX for 20 minutes. After washing with PBS twice, cells were resuspended in PBS and counted. Equal numbers of cells from different treatment groups were then plated onto 96-well plates for fluorescence reading. To quantify [Ca^2+]m by 5 μM Rhod-2 or intracellular Ca^2+ intensity by 1 μM Fluo-4, BMDM treated as indicated were loaded with the respective dyes according to manufacturer's instructions for 30 minutes. After washing twice, fluorescence intensity was determined using a FilterMax F5 multimode plate reader (Molecular Devices). To analyze mPTP opening by calcein-quenching assay, BMDM treated as indicated were loaded with calcein at 2 μM and CoCl2 at 160 μM for 30 minutes at 37° C. according to manufacturer's instructions. After washing twice, fluorescence intensity was determined per with a FilterMax F5 multimode plate reader (Molecular Devices).

BMDM [5] = assay: cytosolic Ox-mtDNA (8-OH-dG ELISA of cytosolic mtDNA) in BMDM; format: cell-based, mouse; details: for induction of Ox-mtDNA cytosolic release by mtROS generator: DMNQ 20 μM 16 hrs or MitoParaquat 5 μM 1 hr
Experimental: as §2
(§6) BMDM were stimulated as indicated. […] Briefly, BMDM were washed with PBS and harvested, 10% of which were saved for DNA extraction of whole cells. The remaining BMDM resuspended with pre-chilled mitochondrial extraction buffer 1 (220 mM mannitol, 70 mM sucrose, 20 mM HEPES-KOH, pH 7.5, 1 mM EDTA and 2 mg/mL bovine serum albumin) supplemented with a protease inhibitor cocktail and a phosphatase inhibitor cocktail were passed through a 25-G syringe (BD Biosciences) 20 times on ice. The homogenized cells were centrifuged at 1000×g for 15 minutes at 4° C. The supernatant was further centrifuged at 10,000×g for 10 minutes at 4° C. to pellet the mitochondria from supernatant cytosolic fraction. qPCR was performed after DNA purification with AllPrep DNA/RNA Mini Kit according to manufacturer's instructions, from both whole cell extracts and cytosolic fractions using mtDNA primers (D-loop, Cox1, non-NUMT), or after DNA purification from whole cell extracts using nuclear DNA primers (Tert, 18S, B2m). The Ct values obtained for mtDNA abundance in whole cell extracts served as normalization controls for the mtDNA values obtained from the cytosolic fractions. For the measurement of Ox-mtDNA, purified mtDNA was extracted from the cytosolic or mitochondrial fractions as indicated. The 8-OH-dG content was then quantified using 8-hydroxy 2-deoxyguanosine ELISA Kit, per manufacturer's instructions.

BMDM [6] = assay: cytosolic mtDNA (qPCR after cellular fractionation) in BMDM; format: cell-based, mouse; details: for induction of mtDNA cytosolic release by mtROS generator: DMNQ 20 μM 16 hrs or MitoParaquat 5 μM 1 hr
Experimental: as §2, §6

NLRP3 inflammasome = NLRP3 inflammasome activation (Casp1 p20 and mature IL-1β, IB and ELISA) in BMDM; format: cell-based, mouse; details: for activation of NLRP3 inflammasome by mtROS generator: BMDM −/+ LPS priming, DMNQ or MitoParaquat; for NLRP3 inflammasome activation (Casp1 activation and mature IL-1β secretion): LPS-primed BMDM, compound pretreatment 16 h, challenged with NLRP3 activators
Excerpt: (§1) Paired antibodies (capture and detection) and standard recombinant mouse IL-1β and TNF were used to determine mouse cytokine concentrations according to manufacturer's instructions.

BMDM [7] = assay: mtROS (MitoSOX) in BMDM; details: LPS-primed BMDM; for mtROS generated by the compound itself: DMNQ 20 μM 16 hrs or MitoParaquat 5 μM 1 hr, compared with ATP
Experimental: as §2, §5

BMDM [8] = assay: 8-OH-dG content of mtDNA from mitochondria of BMDM; details: for mtDNA oxidation caused by mtROS generator: LPS-primed BMDM, DMNQ 20 μM 16 hrs or MitoParaquat 5 μM 1 hr
Experimental: as §2, §6

BMDM [9] = assay: extracellular (cell-free) mtDNA released by donor BMDM; format: cell-based, mouse; details: for amount of DNA released by LPS-primed donor BMDM challenged with the NLRP3 activator: 1500,000 donor cells per group, LPS-primed only approximately 0.1 μg
Experimental: Extracellular DNA of donor macrophages (1500,000 cells per group) was isolated using QIAamp Circulating Nucleic Acid Kit according to manufacturer's instructions and then eluted in 300 μL distilled H2O and quantified using spectrophotometric analysis at 260/280 nm with Nanodrop. […] Applicant used 5% of the prepared DNA for qPCR measurement of extracellular mtDNA and the remaining 95% were added to the recipient BMDM for analyzing the paracrine immunostimulatory effects.

[10] = system: NLRP3, pro-IL-1β, pro-casp1 and ASC; assay: immunoblot of NLRP3 inflammasome component expression in BMDM lysates; format: cell-based, mouse; details: BMDM lysates before and after LPS priming, compound pretreatment 16 h
TNF = TNF secretion by BMDM (ELISA); format: cell-based, mouse; details: compound pretreatment 16 h, LPS priming, NLRP3 activators
Excerpt: as §1

BMDM [11] = assay: total mtDNA (LPS-stimulated mtDNA synthesis, qPCR) in BMDM; format: cell-based, mouse; details: compound 10 μM 16 h, before or after LPS priming
Excerpt: Nuclear DNA encoding telomerase reverse transcriptase (Tert), 18S ribosomal RNA and β2 microglobulin (B2m) was used for normalization.

BMDM [12] = assay: mitochondrial membrane potential (TMRM) in BMDM; format: cell-based, mouse; details: BMDM incubated with CsA or VBIT-4
Experimental: as §2, §3

STING = STING Ser365 phosphorylation (puncta by immunofluorescence, immunoblot) in BMDM; details: CsA 1 μM, VBIT-4 10 μM or FEN1-IN-4 10 μM 16 hrs
Experimental: as §2
Whole cell lysates were prepared in RIPA buffer (25 mM Tris-HCl pH 7.6, 150 mM NaCl, 1% NP-40, 1% sodium deoxycholate, 0.1% SDS) containing a protease inhibitor cocktail and a phosphatase inhibitor cocktail. Protein concentrations were determined using BCA Protein Assay Kit. Equal amounts of protein were separated by SDS-PAGE and transferred onto PVDF membranes, blocked in 5% BSA in 1×TBST for 1 h and incubated with primary antibodies overnight. Secondary antibodies were added for 1 h and detection was performed using Clarity Western ECL Substrate.
as §4

BMDM [13] = assay: Ox-mtDNA and mtDNA in the intermembrane space (proteinase K digested mitochondria); details: supernatant of proteinase K digested mitochondria from treated BMDM
Experimental: To dissect the roles of VDAC oligomerization and mPTP in mtDNA escape, Applicant investigated whether Ox-mtDNA and mtDNA were trapped in the mitochondrial intermembrane space (IMS) of VBIT-4 treated BMDM. […] Using this method (FIG. 2F), Applicant measured relative Ox-mtDNA and mtDNA amounts in the IMS.
BMDM were stimulated as indicated. Cellular fractionation was carried out as previously described (Xian and Liou, 2019; Xian et al., 2019). Briefly, BMDM were washed with PBS and harvested, 10% of which were saved for DNA extraction of whole cells. The remaining BMDM resuspended with pre-chilled mitochondrial extraction buffer 1 (220 mM mannitol, 70 mM sucrose, 20 mM HEPES-KOH, pH 7.5, 1 mM EDTA and 2 mg/mL bovine serum albumin) supplemented with a protease inhibitor cocktail and a phosphatase inhibitor cocktail were passed through a 25-G syringe (BD Biosciences) 20 times on ice. The homogenized cells were centrifuged at 1000×g for 15 minutes at 4° C. […] The 8-OH-dG content was then quantified using 8-hydroxy 2-deoxyguanosine ELISA Kit, per manufacturer's instructions.

[14] = LPS-primed BMDM, compound 10 μM 16 h, ATP 4 mM 1 h
[15] = LPS-primed shCtrl or shOgg1 BMDM, CsA 1 μM or VBIT-4 10 μM 16 h, ATP 4 mM 1 h

SMILES: C1CCC[C@H]2CCCN3CC[C@@H](CCCCCC[C@@H]4CCCN5CC[C@@H](CC1)O[C@@H]45)O[C@@H]23 [XeC, xestospongin C]
- ATP- or nigericin-induced [Ca^2+]m pulse (Rhod-2 fluorescence) (BMDM [1]): had no effect
- cytosolic Ca^2+ (Fluo-4 fluorescence) (BMDM [2]): decreased

SMILES: COc1cc([C@@H]2c3cc4c(cc3[C@@H](O[C@@H]3O[C@@H]5CO[C@@H](C)O[C@H]5[C@H](O)[C@H]3O)[C@H]3COC(=O)[C@H]23)OCO4)cc(OC)c1O [etoposide]
- cytochrome C release (BMDM [3]): induced cytochrome C release
- ASC speck formation triggered by apoptosis inducer (ASC; BMDM treated with etoposide): did not trigger

SMILES: O=C1NC(=NS(=O)(=O)c2cccc3ccccc23)S/C1=C\c1ccc(Br)cc1 [Pitstop2]
- cytokine mRNA induction by extracellular mtDNA (BMDM [4]; recipient BMDM with Pitstop 2 (2 uM), 24 hrs with extracellular DNA): diminish

SMILES: COC1=C(OC)C(=O)c2ccccc2C1=O [DMNQ]
- induction of VDAC oligomerization by mtROS generator (VDAC): neither compound induced
- induction of mPTP opening by mtROS generator (mPTP): neither compound induced
- induction of Ox-mtDNA cytosolic release by mtROS generator (BMDM [5]; LPS-primed BMDM): neither compound induced
- induction of mtDNA cytosolic release by mtROS generator (BMDM [6]; LPS-primed BMDM): neither compound induced
- activation of NLRP3 inflammasome by mtROS generator (NLRP3 inflammasome): neither mtROS generator activated
- mtROS generated by the compound itself (BMDM [7]): as much mtROS as ATP
- mtDNA oxidation caused by mtROS generator (BMDM [8]): augmented

SMILES: Nc1ncnc2c1ncn2[C@@H]1O[C@H](COP(=O)(O)OP(=O)(O)OP(=O)(O)O)[C@@H](O)[C@H]1O [ATP, adenosine triphosphate]
- amount of DNA released by LPS-primed donor BMDM challenged with the NLRP3 activator (BMDM [9]): about 1.3 μg

SMILES: C[n+]1ccc(-c2cc[n+](CCCCCCCCCC[P+](c3ccccc3)(c3ccccc3)c3ccccc3)cc2)cc1.[I-].[I-].[I-] [mitoParaquat]
- induction of VDAC oligomerization by mtROS generator (VDAC): neither compound induced
- induction of mPTP opening by mtROS generator (mPTP): neither compound induced
- induction of Ox-mtDNA cytosolic release by mtROS generator (BMDM [5]; LPS-primed BMDM): neither compound induced
- induction of mtDNA cytosolic release by mtROS generator (BMDM [6]; LPS-primed BMDM): neither compound induced
- activation of NLRP3 inflammasome by mtROS generator (NLRP3 inflammasome): neither mtROS generator activated
- mtROS generated by the compound itself (BMDM [7]): as much mtROS as ATP
- mtDNA oxidation caused by mtROS generator (BMDM [8]): augmented

SMILES: N.N.N.N.N.N.N.N.N.N.N.N.N.N.[Cl-].[Cl-].[Cl-].[Cl-].[Cl-].[Cl-].[O-2].[O-2].[Ru+3].[Ru+3].[Ru+4] [RuR, ruthenium red]
- VDAC oligomerization induced by NLRP3 activator (VDAC): blocked
- mPTP opening (calcein fluorescence) (mPTP): blocked
- cytosolic Ox-mtDNA (release) (BMDM [5]; [14]): reducing
- cytosolic mtDNA release (BMDM [6]; [14]): reducing
- NLRP3 inflammasome activation (Casp1 activation and mature IL-1β secretion) (NLRP3 inflammasome): suppressed
- NLRP3, pro-IL-1β, pro-casp1 and ASC expression [10]: no effect
- TNF secretion (TNF): no effect
- ATP- or nigericin-induced [Ca^2+]m pulse (Rhod-2 fluorescence) (BMDM [1]): disrupted
- LPS-stimulated mtDNA synthesis (total mtDNA) (BMDM [11]): did not inhibit

SMILES: O=C(CC(CO)N1CCN(c2ccc(OC(F)(F)F)cc2)CC1)Nc1ccc(Cl)cc1 (stereo not drawn) [VBIT-4]
- VDAC oligomerization induced by NLRP3 activator (VDAC): blocked
- mPTP opening (calcein fluorescence) (mPTP): little effect on calcein fluorescence
- reduction of cytosolic pool of Ox-mtDNA (BMDM [5]; [15]): 81±4%
- reduction of cytosolic pool of mtDNA (BMDM [6]; [15]): 50-60%
- NLRP3 inflammasome activation (Casp1 activation and mature IL-1β secretion) (NLRP3 inflammasome): inhibited
- NLRP3, pro-IL-1β, pro-casp1 and ASC expression [10]: without affecting
- TNF secretion (TNF): without affecting
- mitochondrial depolarization upon NLRP3 activator challenge (BMDM [12]): abrogated
- cell-free mtDNA release (BMDM [9]; LPS-primed donor BMDM pretreated with compound, challenged with ATP or nigericin): inhibited
- immunostimulatory activity of DNA secreted by treated donor BMDM (BMDM [4]; recipient BMDM incubated 24 h with DNA from compound-pretreated donor BMDM, cytokine and ISG mRNAs): inhibited
- mtROS production (BMDM [7]; compound pretreatment 16 h, ATP or nigericin): modest decline
- ASC speck formation (ASC; BMDM, VBIT-4 10 μM 16 h, LPS-primed, ATP or nigericin 1 h): inhibited
- reduction of mtDNA oxidation (8-OH-dG in mitochondrial mtDNA) (BMDM [8]; LPS-primed BMDM pretreated with CsA or VBIT-4 16 h, ATP stimulation): 45±5.0%
- formation of Ser^365 phosphorylated STING puncta (STING; LPS-primed BMDM, ATP or nigericin): diminished
- ATP-induced STING Ser^365 phosphorylation (immunoblot) in Nlrp3−/− BMDM (STING; LPS-primed Nlrp3−/− BMDM, ATP): completely blocked
- amount of Ox-mtDNA within the IMS (BMDM [13]): elevated
- amount of mtDNA (different regions of the genome) within the IMS (BMDM [13]): elevated

SMILES: CO[C@@H]1C[C@@H](C[C@H]2CC[C@H](C)[C@H]([C@@H](C)C(=O)O)O2)O[C@]2(O[C@](C)([C@H]3CC[C@@](C)([C@@H]4O[C@@H]([C@H]5O[C@@](O)(CO)[C@H](C)C[C@@H]5C)C[C@@H]4C)O3)C[C@H]2C)[C@@H]1C [nigericin]
- amount of DNA released by LPS-primed donor BMDM challenged with the NLRP3 activator (BMDM [9]): around 2 μg

SMILES: O=c1[nH]c(=O)c2[nH]c([O-])nc2[nH]1.[Na+] [MSU, monosodium urate]
- amount of DNA released by LPS-primed donor BMDM challenged with the NLRP3 activator (BMDM [9]): about 0.7 μg
